**Q.** With COC(=O)C1=C(C(F)F)NC(C)=C(C(=O)OC(C)C)C1c1cccc(Cl)c1Cl (configuration not stated) as the molecule, how does the melting point read?
**A.** Its melting point is 156 to 157 °C.

**Q.** For COc1ccc(C=C(C=O)C(C=O)=Cc2ccc(OC)cc2)cc1, which melting point is on record?
**A.** The melting point was 207 °C.

**Q.** Which melting point does the source give for CNC1(C)CN(c2cc3c(cc2F)c(=O)c(C(=O)O)cn3C2CC2)C1 here?
**A.** The melting point was over 300 °C.

**Q.** With CCC(CC)c1nn(-c2ncc(C(F)(F)F)cn2)cc1CCCOc1c(C)cccc1CC(=O)O as the molecule, how does the melting point read?
**A.** The melting point was 110 to 111 °C.

**Q.** With CCCc1ccccc1Sc1c(O)cc(-c2ccccc2)oc1=O as the molecule, how does the melting point read?
**A.** Its melting point is 158 to 160 °C.

**Q.** For CC(C)(C)C(=O)OCNc1nc(OCc2ccc(F)cc2)ncc1F, which melting point is on record?
**A.** Its melting point is 134 to 135 °C.

**Q.** Which melting point does the source give for CCCn1c(=O)n2c(C)nnc2c2[nH]cnc21 here?
**A.** The melting point was 298 to 299 °C.

**Q.** Which melting point does the source give for CCc1nc2ccc(S(C)(=O)=O)nn2c1S(N)(=O)=O here?
**A.** The melting point was 225 to 226 °C.

**Q.** With CCc1ccc(C(N)=O)c([N+](=O)[O-])c1 as the molecule, how does the melting point read?
**A.** Its melting point is 175 °C.

**Q.** For CC(N)(C(N)=O)C(F)(F)F (configuration not stated), which melting point is on record?
**A.** Its melting point is 84 to 85 °C.

**Q.** Which melting point does the source give for Nc1nc(COCCO)nc2nccnc12 here?
**A.** Its melting point is 149 to 151 °C.

**Q.** For OC1Cc2ccccc2Sc2cc(Cl)c(Cl)cc21 (configuration not stated), which melting point is on record?
**A.** The melting point was 124 to 126 °C.

**Q.** With Nc1ccccc1OCCCCCN1CCC(OC(c2ccccc2)c2ccccc2)CC1 as the molecule, how does the melting point read?
**A.** The melting point was 80 to 81 °C.

**Q.** For CNC(=O)N(N(CCCl)S(C)(=O)=O)S(C)(=O)=O, which melting point is on record?
**A.** Its melting point is 146 to 148 °C.

**Q.** For COc1ccc(C)nc1Cn1c(NCCCN2CCOCC2)nc2ccc(CNc3cc(C)ccc3CCCO)cc21, which melting point is on record?
**A.** The melting point was 132 °C.

**Q.** With CN(Cc1ccc(=O)n(Cc2ccc(Cl)cc2)c1)c1ccccc1 as the molecule, how does the melting point read?
**A.** Its melting point is 106 °C.

**Q.** For Nc1cccc(C23CC2C(=O)NC3=O)c1 (configuration not stated), which melting point is on record?
**A.** The melting point was 135 to 137 °C.

**Q.** With CCCCc1nc2c(N)nc3ccccc3c2n1CCNS(C)(=O)=O as the molecule, how does the melting point read?
**A.** The melting point was 210 to 211 °C.

**Q.** With NC(=NC(=O)Cn1c(Cl)ccc1Cl)NC(=O)c1ccc(Cl)cc1 as the molecule, how does the melting point read?
**A.** Its melting point is 198 to 200 °C.

**Q.** Which melting point does the source give for Cc1cccc(COc2cccc(O)c2)c1C(=O)O here?
**A.** Its melting point is 112 to 113 °C.

**Q.** Which melting point does the source give for O=C(O)C1(S(=O)(=O)c2ccc(OCC#CCN3CCOCC3)cc2)CCN(Cc2ccc(Br)cc2)CC1 here?
**A.** Its melting point is 198 °C.

**Q.** For CC1(C)CC(=NO)c2cc(OCc3ccccc3)ccc2O1, which melting point is on record?
**A.** The melting point was 105 to 108 °C.

**Q.** With COC(=O)c1ccc(OC)c2c1CCO2 as the molecule, how does the melting point read?
**A.** Its melting point is 68 to 78 °C.

**Q.** With COc1ccc2cc3c(c(-c4ccc5c(c4)OCO5)c2c1)CNC3=O as the molecule, how does the melting point read?
**A.** The melting point was 259 to 262 °C.

**Q.** Which melting point does the source give for O=C(c1ccc(CN2CCOCC2)cc1)c1cccc2nc(N[C@@H]3CCc4ccccc43)ccc12 here?
**A.** The melting point was 160 °C.

**Q.** With OCCc1nccn1CCCCc1ccc(OCc2ccccc2)cc1 as the molecule, how does the melting point read?
**A.** The melting point was 75 to 77 °C.

**Q.** With COC(=O)c1ccc2oc(C(=O)C(Cc3ccccc3)NC(=O)Cn3c(-c4ccc(F)cc4)ncc(N)c3=O)nc2c1 (configuration not stated) as the molecule, how does the melting point read?
**A.** Its melting point is 208 to 213 °C.

**Q.** With CC1=CCC2C(=O)OC(=O)C2C1 (configuration not stated) as the molecule, how does the melting point read?
**A.** Its melting point is 58 to 63 °C.

**Q.** For CCCCCCC(C(=O)OCC)n1c(C(F)(F)C(F)(F)F)nc2cc(-c3ccccc3-c3nn[nH]n3)ccc21 (configuration not stated), which melting point is on record?
**A.** The melting point was 70 to 72 °C.

**Q.** Which melting point does the source give for CC[C@H](C)[C@H](NC(=O)NCc1ccccc1)C(=O)N[C@H](CO)Cc1c[nH]c2ccccc12 here?
**A.** Its melting point is 132 to 133 °C.

**Q.** For O=P(COc1ccc2ccccc2c1-c1c(OCP(=O)(c2ccccc2)c2ccccc2)ccc2ccccc12)(c1ccccc1)c1ccccc1, which melting point is on record?
**A.** The melting point was 252 to 253 °C.

**Q.** Which melting point does the source give for CN1C(=O)C(N)N=C(c2ccccc2)c2cnccc21 (configuration not stated) here?
**A.** Its melting point is 109 to 123 °C.

**Q.** Which melting point does the source give for CCCCCCCCCCCCS(=O)(=O)N1CCCSC1=C(Cl)[N+](=O)[O-] here?
**A.** Its melting point is 76 to 77 °C.

**Q.** With Cc1cc(CC(=O)c2ccc(F)cc2)on1 as the molecule, how does the melting point read?
**A.** The melting point was 92 to 93 °C.

**Q.** With CCOC(=O)OC1C(=O)N(CCN(C)C)c2ccc3ccccc3c2SC1c1ccc(OC)cc1 (configuration not stated) as the molecule, how does the melting point read?
**A.** The melting point was 168 to 169 °C.

**Q.** For O=c1c(Nc2cccc(C(F)(F)F)c2)c(Nc2ccc(Br)cc2-c2nnn[nH]2)c1=O, which melting point is on record?
**A.** Its melting point is 150 to 165 °C.

**Q.** Which melting point does the source give for CNC1(c2ccccc2Cl)C(=O)N(S(=O)(=O)c2ccc([N+](=O)[O-])cc2)c2ccc(Cl)cc21 (configuration not stated) here?
**A.** The melting point was 220 to 221 °C.

**Q.** For CCN(CC)CCNC(=O)c1cccc2c(=O)c3cccc(I)c3[nH]c12, which melting point is on record?
**A.** Its melting point is 148 to 150 °C.

**Q.** For Oc1ncnc(C(F)F)c1Cl, which melting point is on record?
**A.** Its melting point is 148 to 150 °C.

**Q.** For CNC(C)Cn1nc(Cl)c2cc3ccc(OC)cc3nc21 (configuration not stated), which melting point is on record?
**A.** Its melting point is 98 to 100 °C.

**Q.** With CC(CO)c1ccc2c(=O)c3ccccc3ccc2c1 (configuration not stated) as the molecule, how does the melting point read?
**A.** The melting point was 63 to 66 °C.

**Q.** Which melting point does the source give for FC(F)(F)c1ccc(-c2cc(C(F)(F)F)n3ncc(Br)c3n2)cc1 here?
**A.** The melting point was 136 °C.

**Q.** Which melting point does the source give for Cc1ccc(-c2nc(Cl)nc(Cl)n2)c(C)c1 here?
**A.** The melting point was 136 to 137 °C.

**Q.** With N#Cc1c(C(F)(F)F)nn(-c2c(Cl)cc(C(F)(F)F)cc2Cl)c1N as the molecule, how does the melting point read?
**A.** Its melting point is 196 to 200 °C.

**Q.** For CC(CN(C)C)C(CNC(N)=O)(c1ccccc1)c1ccccc1 (configuration not stated), which melting point is on record?
**A.** Its melting point is 226 to 228 °C.

**Q.** Which melting point does the source give for CC(C)n1nc(-c2c(-c3ccccc3)oc(=O)n2C(C)C(=O)O)ccc1=O (configuration not stated) here?
**A.** The melting point was 173 to 175 °C.

**Q.** With Cc1[nH]c(=O)ccc1C(=O)c1ccco1 as the molecule, how does the melting point read?
**A.** Its melting point is 258 to 260 °C.

**Q.** Which melting point does the source give for Cc1c(-c2ccc(O)cc2)n(Cc2ccc(OCCN3CCCCC3)cc2)c2ccc(O)cc12 here?
**A.** Its melting point is 214 to 217 °C.

**Q.** With COc1cc(N)c(F)cc1Br as the molecule, how does the melting point read?
**A.** Its melting point is 60 to 62 °C.

**Q.** With Cc1cc2oc(=O)c3c(c2cc1Cl)CCNC3 as the molecule, how does the melting point read?
**A.** The melting point was 184 to 185 °C.

**Q.** For CCCCOc1nc(-c2ccco2)c2ncn(Cc3ccc(OC)cc3)c2n1, which melting point is on record?
**A.** The melting point was 113 °C.

**Q.** Which melting point does the source give for COc1ccc(CCC(=O)C2C(=O)NC(=O)NC2=O)cc1 here?
**A.** The melting point was 248 to 250 °C.

**Q.** For CCCCc1c(/C=C/C(=O)NCCCCCCc2cncnc2)cc(OC)c2ccccc12, which melting point is on record?
**A.** The melting point was 128 to 129 °C.

**Q.** Which melting point does the source give for COC1=C(OC)C(=O)C(CCCCCCCCCO)=C(C)C1=O here?
**A.** Its melting point is 45 °C.

**Q.** With COc1ccc2c(cccc2[C@H]2CO[C@H](CCCNC(=O)OCC(N)=O)OC2)c1 as the molecule, how does the melting point read?
**A.** Its melting point is 148 to 150 °C.

**Q.** With COc1ccc2c(c1)C(=O)C(=Cc1ccccc1)C2 as the molecule, how does the melting point read?
**A.** The melting point was 131 to 133 °C.

**Q.** For CCCCOC(=O)C(C)(NC(=O)c1cc([N+](=O)[O-])cc([N+](=O)[O-])c1)C(C)C (configuration not stated), which melting point is on record?
**A.** Its melting point is 110 to 113 °C.

**Q.** Which melting point does the source give for O=[N+]([O-])c1ccc(C=Cc2ccc(N(CCCCCCO)CCCCCCO)cc2)cc1 here?
**A.** The melting point was 126 to 128 °C.

**Q.** For O=C1CSc2nc(Oc3ccc(N4CCNCC4)cc3)ncc2N1, which melting point is on record?
**A.** Its melting point is 309 to 312 °C.

**Q.** For CCOC(=O)c1cc2cc(-c3ccc(C(C)=NO)cc3)ccc2o1, which melting point is on record?
**A.** The melting point was 220 to 222 °C.

**Q.** With Oc1nc(NCc2ccc(F)cc2)nc(Nc2cccc(C(F)(F)F)c2)n1 as the molecule, how does the melting point read?
**A.** Its melting point is 266 to 268 °C.

**Q.** With O=C1Cc2cc(-c3cnc4[nH]c(=O)n(CC5CCCCC5)c4n3)ccc2N1 as the molecule, how does the melting point read?
**A.** Its melting point is 313 to 316 °C.

**Q.** For Cc1cc(C)n(-c2nc(-c3ccc(Cl)cc3)c(CCC(=O)N3CCN(CC4CCN(C)CC4)CC3)o2)n1, which melting point is on record?
**A.** Its melting point is 126 to 127 °C.

**Q.** Which melting point does the source give for CC(C)N1C(Oc2ccccc2[N+](=O)[O-])=NS(=O)(=O)N=C1Oc1ccccc1[N+](=O)[O-] here?
**A.** Its melting point is 259 to 263 °C.

**Q.** With O=C1CCC(c2ccc(-n3cnc(CO)c3)cc2)=NN1 as the molecule, how does the melting point read?
**A.** Its melting point is 214 to 215 °C.

**Q.** For O=[N+]([O-])c1cccc2cc(O)c(O)cc12, which melting point is on record?
**A.** Its melting point is 199 to 201 °C.

**Q.** Which melting point does the source give for CN(C)S(=O)(=O)Cc1ccccc1C(=O)O here?
**A.** The melting point was 112 to 119 °C.

**Q.** With COc1ccc(C2CC(=O)C(C(=O)O)=CN2C2CC2)cc1 (configuration not stated) as the molecule, how does the melting point read?
**A.** The melting point was 137 to 139 °C.

**Q.** Which melting point does the source give for CCOC(=O)c1csc(-c2ccc3cc4c(cc3c2)C(C)(C)CCC4(C)C)c1 here?
**A.** The melting point was 107 to 108 °C.

**Q.** With O=C(CCC12CCC(=O)N1C(=O)CC2)OCc1ccc(Cl)cc1 as the molecule, how does the melting point read?
**A.** The melting point was 141 to 142 °C.

**Q.** For COc1ccc(Cc2nc3c(N)nc4ccccc4c3n2CCCCNC(=O)c2ccc3ccccc3n2)cc1, which melting point is on record?
**A.** Its melting point is 95.1 to 97.4 °C.

**Q.** For Nc1c(C(F)(F)F)cc(OCc2ccccc2)cc1C(F)(F)F, which melting point is on record?
**A.** The melting point was 58 to 59 °C.

From a melting point compilation (Tetko et al.; mined from patent text by program, amines drawn as free bases though some values may be those of a salt)
